# In US20260232750A1, “COMPOSITION AND METHOD FOR INHIBITING ADVANCED GLYCATION END PRODUCTS” (ACCESS BUSINESS GROUP INTERNATIONAL LLC, priority 2022, published 2026):
# “Also recorded” adds a separate entry of the source. Like-named read-outs stand apart in the source and are kept apart here.
# Tests used:
# Type in all cases: biochemical
# [1] = Online UPLC-PDA-MS-ABTS·+ scavenging (post-column derivatisation); settings: online profiling of DOF extract
# Protocol: Online identification of antioxidant components of DOF extract was performed using a UPLC system (Milford, MA, USA) consisting of a Waters photodiode array detector and a Waters postcolumn derivatisation system supplying fresh ABTS solution (UPLC-PDA-QDa-ABTS). […] The detection wavelengths were set at 280 and 734 nm, and the injection volume of the sample was 10 μl.
# To detect radical scavengers, the UPLC system was coupled with a Waters pump, which supplied freshly prepared ABTS·+ solution into a reaction coil (15 m, 0.25 mm ID) with a flow rate of 0.2 ml/min at 37° C. Negative peaks were recorded based on a decrease of absorbance at 729 nm after the reaction of individual compounds with the ABTS·+ radical. For preliminary identification of compounds, a Waters Acquity QDa mass detector in negative ionisation mode was connected in series to PDA with the following parameters: electrospray ion source; cone voltage, 15 V; atomiser, N2; and scanning range, 100-800 m/z.
# [2] = FRAP total antioxidant capacity assay
# Protocol: (§1) Fast colourimetric methods were slightly modified for the in vitro assessment of DPPH· scavenging, ABTS·+ decolourisation capacity, and total antioxidant capacity of FRAP. The stock solutions of derivatisation reagents were diluted as follows before measurement: DPPH was diluted with absolute ethanol until the absorbance was 0.8±0.05 at λ=517 nm. ABTS working solution was prepared with phosphate buffer (0.2 M, pH 7.4) to display absorbance of 0.8±0.05 at λ=729 nm, based on a previous study. The FRAP solution was prepared according to the instructions of the FRAP kit. Absorbances were measured using an automatic microplate reader (Molecular Group Ltd., USA), and all analyses were performed using 96-well plates. All measurements were performed in triplicate, and Trolox was used as a positive control.
# For total antioxidant capacity, 180 μl of FRAP solution was mixed with 5 μl of sample solution, and the absorbance was measured after 5 min at […] with PBS as the negative control. FeSO4 solutions (0.15, 0.3, 0.6, 0.9, 1.2, and 1.5 mM) were used for the calibration curve. The FRAP value represents the corresponding concentration of FeSO4 solutions (mM FeSO4). The regression equation from the standard curve was used to calculate the equivalent concentration 1 (EC1) of each sample. EC1 is defined as the concentration of the test sample with an absorbance equivalent to that of 1.0 mmol/L of FeSO4 solution, determined by its calibration curve.
# DPPH· scavenging assay = assay: DPPH· scavenging assay
# COX-2 = biological target: T1, COX-2 (Homo sapiens, UniProt P35354); assay: Anti-COX-2 assay (COX-2 Inhibitor Screening Kit)
# T1 construct: purchased Beyotime S0168
# T1 sequence (P35354 18-604): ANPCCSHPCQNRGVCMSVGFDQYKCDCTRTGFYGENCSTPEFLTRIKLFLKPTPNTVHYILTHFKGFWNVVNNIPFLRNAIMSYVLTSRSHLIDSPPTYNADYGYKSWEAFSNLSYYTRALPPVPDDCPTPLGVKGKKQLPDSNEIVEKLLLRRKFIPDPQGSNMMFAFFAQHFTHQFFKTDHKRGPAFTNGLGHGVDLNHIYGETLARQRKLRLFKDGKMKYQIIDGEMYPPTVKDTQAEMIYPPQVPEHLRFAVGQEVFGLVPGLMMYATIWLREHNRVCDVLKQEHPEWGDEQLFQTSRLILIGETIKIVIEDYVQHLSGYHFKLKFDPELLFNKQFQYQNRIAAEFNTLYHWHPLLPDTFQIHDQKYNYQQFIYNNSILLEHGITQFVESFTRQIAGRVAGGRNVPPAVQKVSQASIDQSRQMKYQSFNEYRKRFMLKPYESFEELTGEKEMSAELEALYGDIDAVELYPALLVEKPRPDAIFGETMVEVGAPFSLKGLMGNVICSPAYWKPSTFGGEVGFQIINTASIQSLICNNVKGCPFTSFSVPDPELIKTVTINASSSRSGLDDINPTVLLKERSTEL
# Protocol: Anti-inflammatory activity was assessed by measuring COX-2 enzymatic inhibition on the basis of a described method by using the COX-2 Inhibitor Screening Kit (Beyotime, No. S0168). Celecoxib, a COX-2 inhibitor, was used as a positive control.
# [3] = ABTS·+ decolourisation assay; settings: for IC50: read-out: IC50 against the ABTS radical
# Protocol: as §1
# For ABTS·+ decolourisation capacity, 100 μl of ABTS working solution was mixed with 200 μl of sample solution, and the absorbance was recorded after 10 min at 729 nm. Phosphate buffer (0.2 M, pH 7.4) was used as a negative control.
# DPPH· and ABTS·+ radical scavenging activities of the tested sample were both calculated using the following formula: […]
# where A control and A sample represent the absorbance of the control and test samples, respectively. The IC50 was calculated graphically from the dose-inhibition curves.
SMILES,ABTS radical scavenging by size of negative peaks at 734 nm (in words) [1],antioxidant ability by FRAP (in words) [2],antioxidant ability by DPPH (in words) (DPPH· scavenging assay),COX-2 inhibition (in words) (COX-2),further results
"O=c1c(O[C@@H]2O[C@H](CO)[C@@H](O)[C@H](O)[C@H]2O)c(-c2ccc(O)c(O)c2)oc2cc(O)cc(O)c12 [Compound 25, Isoquercitrin]",strongest ABTS radical scavengers,great antioxidant potency,great antioxidant potency,great COX-2 inhibition; also recorded: outstanding COX-2 inhibitory effects,"FRAP EC1 ([2]; Table 11, mean ± SD, n = 3): 520 µM; antioxidant ability by FRAP (in words) ([2]; listed as isoquercitrin): selective and significant antioxidant abilities; antioxidant ability by DPPH (in words) (DPPH· scavenging assay; listed as isoquercitrin): selective and significant antioxidant abilities; COX-2 inhibition (in words) (COX-2; listed as isoquercitrin): potent COX-2 inhibitory capacity"
"O=c1cc(-c2ccc(O)cc2)oc2c([C@@H]3O[C@H](CO)[C@@H](O)[C@H](O)[C@H]3O)c(O)c([C@@H]3O[C@H](CO)[C@@H](O)[C@H](O)[C@H]3O)c(O)c12 [Compound 10, Vicenin-2]",strongest ABTS radical scavengers,–,–,no inhibitory effects,–
"O=c1cc(-c2ccc(O)cc2)oc2c([C@@H]3OC[C@@H](O)[C@H](O)[C@H]3O)c(O)c([C@@H]3OC[C@H](O)[C@H](O)[C@H]3O)c(O)c12 [Compound 26, Apigenin-6-C-α-L-arabinoside-8-C-β-D-xyloside]",–,–,–,no inhibitory effects,"FRAP EC1 (mM) ([2]; Table 11, mean ± SD, n = 3): >5,000 µM"
"O=c1cc(-c2ccc(O)cc2)oc2c([C@@H]3OC[C@@H](O)[C@H](O)[C@H]3O)c(O)c([C@@H]3O[C@H](CO)[C@@H](O)[C@H](O)[C@H]3O)c(O)c12 [Compound 19, Vicenin-3]",–,–,–,no inhibitory effects,–
"COc1cc(-c2oc3cc(O)cc(O)c3c(=O)c2O[C@@H]2O[C@H](CO)[C@@H](O)[C@H](O)[C@H]2O)ccc1O [Compound 32, Isorhamnetin-3-O-glucoside]",–,–,–,–,"EC1 of FRAP [2]: 2,757.3±103.8 μM; IC50 (DPPH· scavenging assay): 2370 µM; IC50 (COX-2): 535 ± 150 µM"
"O=C(/C=C/c1ccc(O)c(O)c1)O[C@@H]1O[C@H](CO)[C@@H](O)[C@H](O)[C@H]1O [Compound 5, 1-O-caffeoyl-β-D-glucoside]",strongest ABTS radical scavengers,–,–,–,–
"O=c1cc(-c2ccc(O)c(O)c2)oc2c(C3OC(CO)C(O)C(O)C3O)c(O)c(C3OCC(O)C(O)C3O)c(O)c12 [Compound 11, Luteolin-6-C-β-D-xyloside-8-C-β-D-glucoside]",strongest ABTS radical scavengers,great antioxidant potency,great antioxidant potency,great COX-2 inhibition; also recorded: outstanding COX-2 inhibitory effects,"FRAP EC1 (mM) ([2]; Table 11, mean ± SD, n = 3): 1,009.1 µM"
"O=c1cc(-c2ccc(O)c(O)c2)oc2c(C3OCC(O)C(O)C3O)c(O)c(C3OC(CO)C(O)C(O)C3O)c(O)c12 [Compound 15, Luteolin-6-C-β-D-glucoside-8-C-β-D-xyloside]",–,great antioxidant potency,great antioxidant potency,great COX-2 inhibition; also recorded: outstanding COX-2 inhibitory effects,"FRAP EC1 (mM) ([2]; Table 11, mean ± SD, n = 3): 1,100.3 µM"
"CC1OC(OCC2OC(Oc3c(-c4ccc(O)cc4)oc4cc(O)cc(O)c4c3=O)C(O)C(O)C2O)C(O)C(O)C1O (centres unmarked) [Compound 28, Kaempferol-3-O-rutinoside]",–,–,–,no inhibitory effects,–
"O=c1cc(-c2ccc(O)cc2)oc2c([C@@H]3O[C@H](CO)[C@@H](O)[C@H](O)[C@H]3O)c(O)c([C@@H]3OC[C@@H](O)[C@H](O)[C@H]3O)c(O)c12 [Compound 14, Vicenin-1]",–,–,–,–,IC50 [3]: 96.4 ± 2.11 µM
"O=c1cc(-c2ccc(O)c(O)c2)oc2cc(O)c(C3OC(CO)C(O)C(O)C3O)c(O)c12 [Compound 18, Luteolin-6-C-β-D-glucoside]",–,great antioxidant potency,great antioxidant potency,great COX-2 inhibition; also recorded: outstanding COX-2 inhibitory effects,"FRAP EC1 ([2]; Table 11, mean ± SD, n = 3): 507 µM"
"O=c1cc(-c2ccc(O)cc2)oc2c([C@H]3OC[C@H](O)[C@H](O)[C@H]3O)c(O)c([C@@H]3O[C@H](CO)[C@@H](O)[C@H](O)[C@H]3O)c(O)c12 [Compound 21, Neoschaftoside]",–,great antioxidant potency,great antioxidant potency,–,–
"O=c1cc(-c2ccc(O)cc2)oc2c([C@@H]3OC[C@H](O)[C@H](O)[C@H]3O)c(O)c([C@@H]3O[C@H](CO)[C@@H](O)[C@H](O)[C@H]3O)c(O)c12 [Compound 17, Schaftoside]",–,–,–,no inhibitory effects,–
"Cc1c(C)c2c(c(C)c1O)CCC(C)(C(=O)O)O2 (centres unmarked) [Trolox, 6-hydroxyl-2,5,7,8-tetra-methylchroman-2-carboxylic acid, reference compound]",–,–,–,–,"FRAP EC1 ([2]; Table 11, mean ± SD, n = 3): 560 µM; FRAP EC1 ([2]; concentration equivalent to 1.0 mmol/L FeSO4, text b269): 55.35 ± 5.22 µg/mL; ABTS IC50 ([3]; text b269): 27.68 ± 1.04 µg/mL"
"O=C(O)CC(=O)OCC1OC(Oc2c(-c3ccc(O)c(O)c3)oc3cc(O)cc(O)c3c2=O)C(O)C(O)C1O (centres unmarked) [Compound 27, Quercetin 3-O-(6″-malonyl-glucoside)]",strongest ABTS radical scavengers,great antioxidant potency,great antioxidant potency,great COX-2 inhibition; also recorded: outstanding COX-2 inhibitory effects,"FRAP EC1 ([2]; Table 11, mean ± SD, n = 3): 827 µM"
"O=c1c(OC2OC(CO)C(O)C(O)C2OC2OC(CO)C(O)C(O)C2O)c(-c2ccc(O)c(O)c2)oc2cc(O)cc(O)c12 (centres unmarked) [Compound 16, Quercetin-3-O-sophoroside]",strongest ABTS radical scavengers,great antioxidant potency,great antioxidant potency,great COX-2 inhibition; also recorded: outstanding COX-2 inhibitory effects,"FRAP EC1 ([2]; Table 11, mean ± SD, n = 3): 950 µM; IC50 [3]: 6.63 ± 0.41 µM"
"O=c1c(O[C@@H]2O[C@H](CO)[C@@H](O)[C@H](O)[C@H]2O)c(-c2ccc(O)cc2)oc2cc(O)cc(O)c12 [Compound 31, Astragalin]",–,–,–,no inhibitory effects,–
